Experimental data: article PMC11752888 (Frontiers in Microbiology, 2025)

How the values were obtained:
JTY_0672 = target: T1, JTY_0672 (Mycobacterium tuberculosis, UniProt P96941)
T1 construct: gene Rv0653c

[1] = system: JTY_0672 (TetR family transcriptional regulator) (Mycobacterium bovis BCG Tokyo 172); test: BLI

T1 sequence (P96941 entry or part of it): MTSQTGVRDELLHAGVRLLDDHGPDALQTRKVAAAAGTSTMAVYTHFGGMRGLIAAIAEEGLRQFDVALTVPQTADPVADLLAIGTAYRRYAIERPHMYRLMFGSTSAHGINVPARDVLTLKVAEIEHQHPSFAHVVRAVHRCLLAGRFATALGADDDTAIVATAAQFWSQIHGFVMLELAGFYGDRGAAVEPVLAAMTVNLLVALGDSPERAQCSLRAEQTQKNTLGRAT

Compound | concentration influencing DNA binding (JTY_0672) [mM] | Kd [1] [µM]
N[C@@H](CC(=O)O)C(=O)O [Asp] | 20 | –
O=C1O[C@H]([C@@H](O)CO)C(O)=C1O [VC] | 4 | –
N[C@@H](Cc1cnc[nH]1)C(=O)O [His] | 40 | –
O=C(O)c1cccnc1 [VB3] | 8 | –
N[C@@H](CCC(=O)O)C(=O)O [Glu] | 20 | –
Cc1ncc(C[n+]2csc(CCO)c2C)c(N)n1 [VB1] | 8 | –
JTY_3148 promoter PCR fragment (biotin) | – | 2.2
N[C@@H](CS)C(=O)O [Cys] | 4 | –
ATTCATGGTCAGCGCCTTCCCCGGTGATCCGGATTATCTGCAACCGTCAG (double strand) [JTY_3148 promoter, 50 bp WT C13] | – | 5.03
